# Measurements published in PubChem BioAssay (NCI).
#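 Dose response: 5 concentrations. Exposure: 48 h. Format: 96-well plates. Endpoint: linear interpolation; highest concentration if not reached. TGI: total growth inhibition.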
# Columns and labels:
# Assay in all cases: inhibition of tumour cell growth, NCI panel, 48 h
# UACC-257 melanoma = test system: UACC-257 melanoma
# HCT-116 colon = test system: HCT-116 colon
# MDA-MB-435 = test system: MDA-MB-435
# NCI-H522 lung = test system: NCI-H522 lung
# EKVX NSCLC = test system: EKVX NSCLC
# OVCAR-5 ovarian = test system: OVCAR-5 ovarian
# HOP-62 NSCLC = test system: HOP-62 NSCLC
# CCRF-CEM leukemia = test system: CCRF-CEM leukemia
# LOX IMVI melanoma = test system: LOX IMVI melanoma
# DU-145 prostate = test system: DU-145 prostate
# HS 578T breast = test system: HS 578T breast
# NCI-H460 lung = test system: NCI-H460 lung
# SK-OV-3 ovarian = test system: SK-OV-3 ovarian
# HCC-2998 colon = test system: HCC-2998 colon
# NCI-H23 lung = test system: NCI-H23 lung
# MDA-N = test system: MDA-N
# SF-268 CNS = test system: SF-268 CNS
# SK-MEL-2 melanoma = test system: SK-MEL-2 melanoma
# SF-295 CNS = test system: SF-295 CNS
# PC-3 prostate = test system: PC-3 prostate
# SK-MEL-28 melanoma = test system: SK-MEL-28 melanoma
# RXF 393 renal = test system: RXF 393 renal
# BT-549 breast = test system: BT-549 breast
# IGROV1 ovarian = test system: IGROV1 ovarian
# SW-620 colon = test system: SW-620 colon
# NCI/ADR-RES ovarian = test system: NCI/ADR-RES ovarian
# MALME-3M melanoma = test system: MALME-3M melanoma
# SNB-75 CNS = test system: SNB-75 CNS
# OVCAR-4 ovarian = test system: OVCAR-4 ovarian
# U251 CNS = test system: U251 CNS
# A498 renal = test system: A498 renal
# MCF7 breast = test system: MCF7 breast
# SF-539 CNS = test system: SF-539 CNS
# HOP-92 NSCLC = test system: HOP-92 NSCLC
# K-562 leukemia = test system: K-562 leukemia
# MDA-MB-231 breast = test system: MDA-MB-231 breast
# ACHN renal = test system: ACHN renal
# T-47D breast = test system: T-47D breast
# 786-0 renal = test system: 786-0 renal
# OVCAR-3 ovarian = test system: OVCAR-3 ovarian
# NCI-H226 lung = test system: NCI-H226 lung
# MOLT-4 leukemia = test system: MOLT-4 leukemia
# SNB-19 CNS = test system: SNB-19 CNS
# UACC-62 melanoma = test system: UACC-62 melanoma
# COLO 205 colon = test system: COLO 205 colon
# SN12C renal = test system: SN12C renal
# TK-10 renal = test system: TK-10 renal
# SR leukemia = test system: SR leukemia
# CAKI-1 renal = test system: CAKI-1 renal
# A549 NSCLC = test system: A549 NSCLC
# M14 melanoma = test system: M14 melanoma
# SK-MEL-5 melanoma = test system: SK-MEL-5 melanoma
# OVCAR-8 ovarian = test system: OVCAR-8 ovarian
# HCT-15 colon = test system: HCT-15 colon
# KM12 colon = test system: KM12 colon
# HT29 colon = test system: HT29 colon
# RPMI-8226 leukemia = test system: RPMI-8226 leukemia
# HL-60(TB) leukemia = test system: HL-60(TB) leukemia
# UO-31 renal = test system: UO-31 renal
smiles,measurement,setting,value
CCCCCC(/C=N/NC(N)=S)C(O)(C(F)(F)F)C(F)(F)F (stereo not given),TGI,UACC-257 melanoma,> 10 µM
same,TGI,HCT-116 colon,> 10 µM
same,TGI,MDA-MB-435,> 10 µM
same,TGI,NCI-H522 lung,> 10 µM
same,TGI,EKVX NSCLC,> 10 µM
same,TGI,OVCAR-5 ovarian,> 10 µM
same,TGI,HOP-62 NSCLC,> 10 µM
same,TGI,CCRF-CEM leukemia,> 10 µM
same,TGI,LOX IMVI melanoma,> 10 µM
same,TGI,DU-145 prostate,> 10 µM
same,TGI,HS 578T breast,> 10 µM
same,TGI,NCI-H460 lung,> 10 µM
same,TGI,SK-OV-3 ovarian,> 10 µM
same,TGI,HCC-2998 colon,> 10 µM
same,TGI,NCI-H23 lung,> 10 µM
same,TGI,MDA-N,> 10 µM
same,TGI,SF-268 CNS,> 10 µM
same,TGI,SK-MEL-2 melanoma,> 10 µM
same,TGI,SF-295 CNS,> 10 µM
same,TGI,PC-3 prostate,> 10 µM
same,TGI,SK-MEL-28 melanoma,> 10 µM
same,TGI,RXF 393 renal,> 10 µM
same,TGI,BT-549 breast,> 10 µM
same,TGI,IGROV1 ovarian,> 10 µM
same,TGI,SW-620 colon,> 10 µM
same,TGI,NCI/ADR-RES ovarian,> 10 µM
same,TGI,MALME-3M melanoma,> 10 µM
same,TGI,SNB-75 CNS,> 10 µM
same,TGI,OVCAR-4 ovarian,> 10 µM
same,TGI,U251 CNS,> 10 µM
same,TGI,A498 renal,> 10 µM
same,TGI,MCF7 breast,> 10 µM
same,TGI,SF-539 CNS,> 10 µM
same,TGI,HOP-92 NSCLC,> 10 µM
same,TGI,K-562 leukemia,> 10 µM
same,TGI,MDA-MB-231 breast,> 10 µM
same,TGI,ACHN renal,> 10 µM
same,TGI,T-47D breast,> 10 µM
same,TGI,786-0 renal,> 10 µM
same,TGI,OVCAR-3 ovarian,> 10 µM
same,TGI,NCI-H226 lung,> 10 µM
same,TGI,MOLT-4 leukemia,> 10 µM
same,TGI,SNB-19 CNS,> 10 µM
same,TGI,UACC-62 melanoma,> 10 µM
same,TGI,COLO 205 colon,> 10 µM
same,TGI,SN12C renal,> 10 µM
same,TGI,TK-10 renal,> 10 µM
same,TGI,SR leukemia,> 10 µM
same,TGI,CAKI-1 renal,> 10 µM
same,TGI,A549 NSCLC,> 10 µM
same,TGI,M14 melanoma,> 10 µM
same,TGI,SK-MEL-5 melanoma,> 10 µM
same,TGI,OVCAR-8 ovarian,> 10 µM
same,TGI,HCT-15 colon,> 10 µM
same,TGI,KM12 colon,> 10 µM
same,TGI,HT29 colon,> 10 µM
Cc1ccc2c(=O)[nH]sc2c1,TGI,UACC-257 melanoma,44.1 µM
same,TGI,HCT-116 colon,> 100 µM
same,TGI,MDA-MB-435,27.6 µM
same,TGI,NCI-H522 lung,8.26 µM
same,TGI,EKVX NSCLC,30.6 µM
same,TGI,OVCAR-5 ovarian,> 100 µM
same,TGI,HOP-62 NSCLC,36.7 µM
same,TGI,CCRF-CEM leukemia,13.9 µM
same,TGI,LOX IMVI melanoma,32.9 µM
same,TGI,DU-145 prostate,> 100 µM
same,TGI,HS 578T breast,40 µM
same,TGI,NCI-H460 lung,> 100 µM
same,TGI,SK-OV-3 ovarian,> 100 µM
same,TGI,HCC-2998 colon,36.9 µM
same,TGI,NCI-H23 lung,42.4 µM
same,TGI,MDA-N,27 µM
same,TGI,SF-268 CNS,39 µM
same,TGI,SK-MEL-2 melanoma,> 100 µM
same,TGI,SF-295 CNS,> 100 µM
same,TGI,PC-3 prostate,29.1 µM
same,TGI,SK-MEL-28 melanoma,38.4 µM
same,TGI,RXF 393 renal,28.6 µM
same,TGI,BT-549 breast,30 µM
same,TGI,IGROV1 ovarian,35.3 µM
same,TGI,SW-620 colon,33.2 µM
same,TGI,NCI/ADR-RES ovarian,55.8 µM
same,TGI,MALME-3M melanoma,45.6 µM
same,TGI,SNB-75 CNS,> 100 µM
same,TGI,OVCAR-4 ovarian,> 100 µM
same,TGI,U251 CNS,27.9 µM
same,TGI,A498 renal,> 100 µM
same,TGI,MCF7 breast,36.1 µM
same,TGI,SF-539 CNS,26.9 µM
same,TGI,K-562 leukemia,47.2 µM
same,TGI,MDA-MB-231 breast,31.2 µM
same,TGI,ACHN renal,21.6 µM
same,TGI,T-47D breast,41.8 µM
same,TGI,786-0 renal,15.4 µM
same,TGI,OVCAR-3 ovarian,43.5 µM
same,TGI,NCI-H226 lung,45.5 µM
same,TGI,MOLT-4 leukemia,23.8 µM
same,TGI,SNB-19 CNS,> 100 µM
same,TGI,UACC-62 melanoma,41.2 µM
same,TGI,COLO 205 colon,16.7 µM
same,TGI,SN12C renal,22.7 µM
same,TGI,TK-10 renal,33.9 µM
same,TGI,SR leukemia,18.7 µM
same,TGI,RPMI-8226 leukemia,45.1 µM
same,TGI,CAKI-1 renal,17.8 µM
same,TGI,A549 NSCLC,43.1 µM
same,TGI,HL-60(TB) leukemia,30.8 µM
same,TGI,M14 melanoma,23.9 µM
same,TGI,SK-MEL-5 melanoma,25.6 µM
same,TGI,OVCAR-8 ovarian,33.2 µM
same,TGI,HCT-15 colon,39.4 µM
same,TGI,HT29 colon,32.3 µM
Cc1cc2nc3c(C(O)CO)nn(-c4ccccc4)c3nc2cc1C (stereo not given),TGI,UACC-257 melanoma,48.1 µM
same,TGI,HCT-116 colon,36.6 µM
same,TGI,MDA-MB-435,47.9 µM
same,TGI,NCI-H522 lung,68 µM
same,TGI,EKVX NSCLC,63.4 µM
same,TGI,OVCAR-5 ovarian,44.9 µM
same,TGI,HOP-62 NSCLC,44 µM
same,TGI,LOX IMVI melanoma,66.3 µM
same,TGI,DU-145 prostate,33.1 µM
same,TGI,HS 578T breast,70.9 µM
same,TGI,NCI-H460 lung,37.4 µM
same,TGI,NCI-H23 lung,54.7 µM
same,TGI,MDA-N,40.6 µM
same,TGI,SF-268 CNS,63.3 µM
same,TGI,SK-MEL-2 melanoma,56.2 µM
same,TGI,SF-295 CNS,35.7 µM
same,TGI,PC-3 prostate,32.7 µM
same,TGI,SK-MEL-28 melanoma,42 µM
same,TGI,RXF 393 renal,43.6 µM
same,TGI,BT-549 breast,42.8 µM
same,TGI,IGROV1 ovarian,43.9 µM
same,TGI,SW-620 colon,55.4 µM
same,TGI,NCI/ADR-RES ovarian,44.7 µM
same,TGI,SNB-75 CNS,51.9 µM
same,TGI,OVCAR-4 ovarian,53.4 µM
same,TGI,U251 CNS,38.4 µM
same,TGI,A498 renal,34.9 µM
same,TGI,MCF7 breast,47.3 µM
same,TGI,SF-539 CNS,50.2 µM
same,TGI,HOP-92 NSCLC,45.4 µM
same,TGI,K-562 leukemia,59.3 µM
same,TGI,MDA-MB-231 breast,55 µM
same,TGI,ACHN renal,32.1 µM
same,TGI,T-47D breast,91.5 µM
same,TGI,786-0 renal,42.8 µM
same,TGI,OVCAR-3 ovarian,35.1 µM
same,TGI,NCI-H226 lung,98.2 µM
same,TGI,MOLT-4 leukemia,> 100 µM
same,TGI,SNB-19 CNS,56.1 µM
same,TGI,SN12C renal,32.4 µM
same,TGI,TK-10 renal,35.4 µM
same,TGI,SR leukemia,33.4 µM
same,TGI,RPMI-8226 leukemia,> 100 µM
same,TGI,CAKI-1 renal,33.2 µM
same,TGI,UO-31 renal,36.1 µM
same,TGI,A549 NSCLC,48.5 µM
same,TGI,HL-60(TB) leukemia,45.8 µM
same,TGI,M14 melanoma,> 100 µM
same,TGI,SK-MEL-5 melanoma,> 100 µM
same,TGI,OVCAR-8 ovarian,76.8 µM
same,TGI,HCT-15 colon,42.6 µM
same,TGI,KM12 colon,33.4 µM
same,TGI,HT29 colon,46.5 µM
